Molecules are shown by their SMILES.

For the experiment, the system named is intestinal Caco-2 cells. Nature of the experiment: Impedance measurement of Caco-2 cells in culture after adding cupric chloride. It counts as cell-based. From the text: The device used is specifically described as follows. That is, the support body is made of PDMS, and the size of the compartment in the support body (the combined size of the upper compartment and the lower compartment) is 15 mm in length, 6 mm in width, and 1.6 mm in height. This compartment is divided into an upper compartment and a lower compartment each with a height of approximately 0.8 mm using a polyester porous membrane which is provided with a diameter of 0.4 μm and a thickness of 14 μm (code 3450, made by CORNING INC.). Gold-plated brass nail-shaped objects with a length of 15 mm, an external diameter of 0.5 mm, and its circular head portion with a thickness of 0.4 mm and a diameter of 1.2 mm are used as the upper electrode and the lower electrode using a flat surface of the head portion as a measuring surface. Also, the upper electrode is fixed to the support body with its surface opposite to the surface facing the lower electrode in contact with the inside surface of the upper support body, while the lower electrode is fixed to the support body with its surface facing the upper electrode in contact with the semipermeable membrane. At this time, the distance between the surfaces of the upper electrode that faces the lower electrode and the lower electrode is 0.4 mm. Then, these electrodes are connected to an alternating-current power supply. Culturing conditions: As the culture medium, 10% fetal bovine serum, 1% MEM nonessential amino acid solution, 20 mM HEPES buffer solution, […] penicillin, 100 μg streptomycin, and 1 μg amphotericin added to DMEM (Dulbecco's Minimum Essential Medium) is used, and culturing is performed at an ambient temperature of 37 degrees C., with the carbon dioxide concentration maintained at 5%. Measurement condition: Measurement is performed by using a commercially available impedance analyzer, by applying an AC electrical field of 10 mV amplitude (1 Hz to 10 MHz) across the electrodes. Using the device used in Example 1, while culturing intestinal Caco-2 cells to which cupric chloride is added; impedance of the cells was measured. The culturing conditions of the cells and impedance measurement conditions are the same as in Example 1. The culture medium was replaced every two days, with the impedance measurement being performed before and after the culture medium replacement. Culturing was normally performed until the seventh day from the start of culturing. After impedance measurement, cupric chloride was added to a concentration of 30 μM to the culture medium, and the cell culturing was continued as it was from the moment directly after the cupric chloride was added (0 hours) to four hours after the addition. After the passage of four hours, the impedance was measured, and the culture medium containing the cupric chloride was washed away by a culture medium not containing the cupric chloride, accordingly washing was performed while the cells in culture were remained in the device. During this period, the impedance of the cells in culture was arbitrarily measured. In the legend shown in FIG. 3, “3 days” means the third day from the start of culturing, while “7 days (4 hours after addition)” means four hours after addition of cupric chloride to the culture medium on the seventh day from the start of culturing.

As for `[Cl][Cu][Cl]` [cupric chloride], the “change in impedance amplitude (membranous structure)” value is, setting by setting: (30 μM for 4 h, then washed, 25 hours after the addition, breakdown of the membranous structure) “reduction”; (30 μM for 4 h, then washed, 48 hours after the addition, renewal of the membranous structure) “increase”; (30 μM in culture medium, added on seventh day of culturing, until four hours from the addition) “hardly any changes”. In addition, the “impedance phase θ around 10^6 Hz region” value runs as follows: (30 μM for 4 h, then washed, 25 hours after the addition, curve shifted to higher frequency side) −53 degrees; (30 μM for 4 h, then washed, 48 hours after the addition, curve shifted to lower frequency side) −58 degrees. In addition, the “change in impedance phase spectra curve” value (30 μM, added on seventh day of culturing, until four hours from the addition) is reported as “without large changes”.

For the origin of these results see patent publication US20070212773A1, “Electrical signal measuring device for cells in culture and electrical signal measuring method that uses same device” (priority 2006, published 2007).
